According to patent US7547678B2, “Method for treating a disease, disorder or adverse effect caused by an elevated serum concentration of an UGT1A1 substrate” (Abbott Laboratories, priority 2008, dated 2009):
Where “and” joins values, the source holds several entries; their conditions need not be identical. Equal values may be shown once. Each block holds one compound with its values, some of them ahead of it.

Assays:
[1] = system: bilirubin-conjugating activity; settings: indinavir treatment; cited from earlier work
[2] = system: UGT1A1; assay: Hepatic 17α-ethinylestradiol glucuronidation activity in liver microsomes of treated rats; settings: both male and female rats
[3] = system: UDP-glucuronosyltransferase 1A (UGT 1A); assay: Affymetrix Rat U34 microarray of liver RNA after oral ritonavir; type: in vivo, Sprague-Dawley rats
[4] = system: bilirubin conjugation in human microsomes; settings: in vitro system of human microsomes; cited from earlier work
[5] = one study, subjects taking atazanavir; cited from earlier work
[6] = molecular target: T1, UGT1A1 isoform (Homo sapiens, UniProt P22309); settings: human cells transfected with the UGT1A1 isoform; cited from earlier work
T1 sequence (P22309 26-533): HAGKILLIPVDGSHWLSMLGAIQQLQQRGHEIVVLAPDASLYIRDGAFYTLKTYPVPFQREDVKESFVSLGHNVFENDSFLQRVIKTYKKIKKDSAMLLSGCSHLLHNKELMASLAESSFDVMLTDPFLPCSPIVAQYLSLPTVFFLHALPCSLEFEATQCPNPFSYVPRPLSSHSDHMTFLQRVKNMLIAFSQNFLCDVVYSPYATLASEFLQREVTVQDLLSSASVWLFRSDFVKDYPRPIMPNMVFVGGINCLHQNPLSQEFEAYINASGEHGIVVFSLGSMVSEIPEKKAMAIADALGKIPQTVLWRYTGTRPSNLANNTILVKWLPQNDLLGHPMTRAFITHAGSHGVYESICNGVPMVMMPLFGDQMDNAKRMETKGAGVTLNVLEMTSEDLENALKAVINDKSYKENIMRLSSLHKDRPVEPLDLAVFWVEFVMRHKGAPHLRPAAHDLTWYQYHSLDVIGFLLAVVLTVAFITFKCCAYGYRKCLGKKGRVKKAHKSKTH

[7] = Ethinylestradiol pharmacokinetics alone and with ritonavir in healthy female volunteers; type: in vivo, human
Protocol: This was an open-label, single-center study in healthy female volunteers who had not received an oral contraceptive for a minimum of six months prior to study start. Subjects received the first dose of oral contraceptive containing 50 μg of ethinyl estradiol on Day 1. […] On Day 15, 300 mg q12h was administered, 400 mg q12h was given on Day 16, and 500 mg q12h was administered thereafter. […] Blood samples for ethinylestradiol concentrations were collected for 48 h after each of the oral contraceptive doses.
Twenty-seven subjects were enrolled in the study. […] Data from these four subjects were therefore excluded from summary statistics. The mean ±SD age of the 23 subjects who completed the study was 34±10 yrs (range 19 to 45 yrs), the mean ±SD weight was 67.3±10.9 kg (range 50.8 to 90.3 kg), and the mean ±SD height was 167±7 cm (range 155 to 180 cm).
Ethinylestradiol was supplied as Demulen@ 1/50-21 tablets (G.D. Searle & Co.) containing 50 μg of ethinylestradiol and 1 mg of ethynodiol diacetate and was administered at 8:00 a.m. on Day 1 and Day 29 with approximately 240 mL of water and within 15 minutes of a meal or snack.
Subjects were confined for 64 hours from Day-1 (day prior to the initial dose) through the first 48 hour blood collection (morning of Day 3) and for 64 hours from Day 28 through the second 48 hour blood collection (morning of Day 31). In addition, subjects came to the clinical testing unit as outpatients for meals, dosing and other study activities twice daily for a total of 14 consecutive days, starting on Day 15. Strenuous activity during confinement was not permitted. During confinement, subjects abstained from all food and beverages except for the scheduled meals and snacks provided in the study. Water was available ad libitum. All meals were standardized with regard to content during confinement. Breakfast, lunch, and dinner were served at approximately 7:30 a.m., 1:00 p.m. and 7:30 p.m. and snacks were provided at approximately 10:00 p.m., except on Days-1 and 28 when the snack was served at 9:45 p.m. An 8 hour fast was required prior to all blood collections for clinical laboratory analyses. The sequence of starting breakfast and dinner on each dosing day during confinement was maintained to the minute such that the time intervals relative to dosing were the same among all subjects.
Blood samples (7 mL) were collected for serum ethinyl estradiol concentrations at the following times relative to the dose on Day 1 and Day 29: prior to (0 h) and at 0.5, 1, 2, 3, 4, 6, 8, 10, 12, 18, 24, 30, 36, and 48 h post-dose. […] All plasma and serum samples were packed with dry ice and shipped to the analytical sites.
Serum samples were analyzed for ethinylestradiol concentrations at Pharmaco LSR, Richmond, Va.
Analysis of serum samples for determination of ethinyl estradiol was performed at Pharmaco LSR, Richmond, Va. Ethinylestradiol serum concentrations were determined using a gas chromatography/mass spectrometry (GC/MS) method. 17α-ethinylestradiol and its corresponding isotopically labeled internal standard were isolated from human serum by buffering the serum to pH 8.6 and then extracting with an ethyl ether/methylene chloride mixture. The organic layer was exchanged into aqueous base, washed with hexane and then acidified and extracted with methylene chloride. […] This method has been validated over 17α-ethinylestradiol concentrations ranging from 2.00 to 256 pg/mL for a 1.0 mL serum volume, with a minimum quantitation limit of 2.00 pg/mL. […]

[8] = 1-Day Studies, 20 mg/kg oral, liver RNA, 20 mg/kg
[9] = 1-Day Studies, 50 mg/kg oral, liver RNA, 50 mg/kg
[10] = 3-Day Studies, 50 mg/kg oral daily, liver RNA, 50 mg/kg
[11] = Mean ± SD, n = 23, single 50 μg ethinylestradiol dose, alone (Day 1) or on Day 29 during ritonavir 500 mg q12h, serum

Structure (SMILES): CC(C)(C)NC(=O)[C@@H]1CN(Cc2cccnc2)CCN1C[C@@H](O)C[C@@H](Cc1ccccc1)C(=O)N[C@H]1c2ccccc2C[C@H]1O [Indinavir]
cause of elevations in serum-unconjugated bilirubin (result in words) [1]: direct inhibition of bilirubin-conjugating activity

UGT1A levels for all probe sets ([3]; dose levels of 100 mg/kg and higher, after 1 and 3 days of treatment): consistent increase
Structure (SMILES): CC(C)c1nc(CN(C)C(=O)N[C@H](C(=O)N[C@@H](Cc2ccccc2)C[C@H](O)[C@H](Cc2ccccc2)NC(=O)OCc2cncs2)C(C)C)cs1 [ritonavir, Ritonavir]
glucuronidation of 17α-ethinylestradiol, a UGT1A1 substrate (result in words) [2]: significantly increase
Fold change, UDP-glucuronosyltransferase 1 family, member 1 (1st probe sequence) ([3]; 1-Day Studies, 20 mg/kg oral, liver RNA): 1.63
Fold change, 3-methylcholanthrene-inducible UDP-glucuronosyltransferase [3, 8]: 1.83 and 1.54
Fold change, UDP-glucuronosyltransferase 1 family, member 1 (2nd probe sequence) [3, 8]: 1.68 and 1.51
Fold change, UDP-glucuronosyltransferase 1 family, member 1 (3rd probe sequence) [3, 8]: 1.8 and 1.52
Fold change, UDP glucuronosyltransferase, exon 1. ([3]; 1-Day Studies, 50 mg/kg oral, liver RNA): 2.43
Fold change, 3-methylcholanthrene-inducible UDP-glucuronosyltransferase [3, 9]: 1.63 and 2.1
Fold change, UDP-glucuronosyltransferase 1 family, member 1 (1st probe sequence) [3, 9]: 1.68 and 1.63
Fold change, UDP-glucuronosyltransferase 1 family, member 1 (2nd probe sequence) [3, 9]: 2.12 and 2.05
Fold change, UDP-glucuronosyltransferase 1 family, member 1 (3rd probe sequence) [3, 9]: 1.75 and 2.12
Fold change, 3-methylcholanthrene-inducible UDP-glucuronosyltransferase [3, 10]: 1.54 and 1.85
Fold change, UDP-glucuronosyltransferase 1 family, member 1 (3rd probe sequence) [3, 10]: 1.31 and 1.33

Structure (SMILES): COC(=O)N[C@H](C(=O)N[C@@H](Cc1ccccc1)[C@@H](O)CN(Cc1ccc(-c2ccccn2)cc1)NC(=O)[C@@H](NC(=O)OC)C(C)(C)C)C(C)(C)C [Atazanavir]
inhibition of bilirubin conjugation (result in words) [4]: inhibits bilirubin conjugation in the micromolar range
subjects exhibiting unconjugated hyperbilirubinemia [5]: 57%
inhibition of bilirubin conjugation (result in words) [6]: inhibits bilirubin conjugation in the micromolar range

Ethinylestradiol AUC∞ [7, 11]: 1.67 ± 0.377 ng·h/mL
Ethinylestradiol Cmax [7, 11]: 0.104 ± 0.024 ng/mL
Ethinylestradiol Tmax [7, 11]: 4.0 ± 1.7 h
Ethinylestradiol β (terminal elimination rate constant) [7, 11]: 0.0407 ± 0.0082 h⁻¹
time at which serum ethinylestradiol concentrations peaked post-dose ([7]; single dose of oral contraceptive alone): approximately 4 h
Structure (SMILES): C#C[C@]1(O)CC[C@H]2[C@@H]3CCc4cc(O)ccc4[C@H]3CC[C@@]21C [Ethinylestradiol, 17α-ethinylestradiol]
